A value given as a limit tells only on which side of the number the result lay.

The source of these data is patent publication US20250059141A1, “TLR MODULATOR AND USE THEREOF” (DUALITY BIOLOGICS (SUZHOU) CO., LTD., priority 2021, published 2025).

For this test, the target named is T1, hTLR7 (human Toll-like receptor 7) (Homo sapiens, UniProt Q9NYK1).
T1 construct: host or cells: HEK-Blue hTLR7 (HEK293-derived reporter cells)
T1 sequence (Q9NYK1 27-1049): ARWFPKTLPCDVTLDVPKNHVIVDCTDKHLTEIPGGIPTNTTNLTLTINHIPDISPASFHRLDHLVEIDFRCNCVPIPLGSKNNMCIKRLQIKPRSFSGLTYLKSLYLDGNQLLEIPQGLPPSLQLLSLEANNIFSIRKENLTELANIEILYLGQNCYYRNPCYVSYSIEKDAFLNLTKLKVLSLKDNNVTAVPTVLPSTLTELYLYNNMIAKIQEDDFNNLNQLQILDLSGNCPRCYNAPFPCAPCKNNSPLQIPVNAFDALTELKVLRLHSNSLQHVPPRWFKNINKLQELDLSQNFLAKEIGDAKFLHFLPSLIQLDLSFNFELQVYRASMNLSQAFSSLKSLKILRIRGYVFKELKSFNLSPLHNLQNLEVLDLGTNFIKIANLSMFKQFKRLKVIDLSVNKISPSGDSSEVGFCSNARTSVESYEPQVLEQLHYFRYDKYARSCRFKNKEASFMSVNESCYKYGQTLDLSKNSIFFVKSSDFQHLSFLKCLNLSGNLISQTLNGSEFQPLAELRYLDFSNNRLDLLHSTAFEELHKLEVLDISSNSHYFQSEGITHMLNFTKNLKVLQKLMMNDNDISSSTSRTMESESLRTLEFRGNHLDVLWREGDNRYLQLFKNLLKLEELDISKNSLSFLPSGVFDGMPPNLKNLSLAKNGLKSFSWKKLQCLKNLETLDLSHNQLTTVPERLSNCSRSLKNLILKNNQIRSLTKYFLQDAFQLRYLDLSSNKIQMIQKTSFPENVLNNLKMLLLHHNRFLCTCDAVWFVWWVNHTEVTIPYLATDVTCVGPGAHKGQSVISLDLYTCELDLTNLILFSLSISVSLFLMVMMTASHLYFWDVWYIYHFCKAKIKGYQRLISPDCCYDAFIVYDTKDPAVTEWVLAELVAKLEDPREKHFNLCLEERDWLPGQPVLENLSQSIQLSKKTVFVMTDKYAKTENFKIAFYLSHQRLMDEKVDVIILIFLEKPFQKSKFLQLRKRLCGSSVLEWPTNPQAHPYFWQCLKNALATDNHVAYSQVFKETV
Nature of the test: HEK-Blue hTLR7 reporter assay (QUANTI-Blue, OD650). The class given is cell-based. The conditions noted are these: HEK-Blue hTLR7 cells, 24 h; class symbols; read-out: Reporter assay TLR7 EC50. The method, then:
In this example, the agonistic activity of the compounds of the present application on hTLR7 (human Toll-like receptor 7) and hTLR8 (human Toll-like receptor 8) was assessed; the induction activity of the compounds on human PBMCs for TNF-α and IFN-α production was assessed in human PBMCs (human peripheral blood mononuclear cells).
All compounds were formulated in DMSO into 30 mM stock solutions and preserved at 4° C. The reference compound ([…], Cat. No. tlrl-r848-5) was purchased from InvivoGen and formulated into a 5 mg/mL stock solution in DMSO and preserved in a freezer at −20° C. HEK-Blue hTLR7 and HEK-Blue hTLR8 cell lines were purchased from InvivoGen, and human PBMCs were purchased from Shanghai Saily Biotechnology Co., Ltd. (Cat. No. XFB—HP100B).
The major instruments used in this study were multifunctional microplate reader Flexstation III (Molecular Device), Envision (Perkin Elmer), M2e (Molecular Device), and Echo555 (Labcyte). 2.1 Agonistic activity of compounds on hTLR7 (human Toll-like receptor 7) and hTLR8 (human Toll-like receptor 8)
Compound dilution: The compounds of the present application are diluted in DMSO, for example, to about 15 mM. The reference compound was added to the plates in sequence after dilution. The compounds were serially 3-fold diluted to 10 concentrations and added to 96-well plates in duplicate.
For the negative control wells, DMSO was added at 0.2 μL/well, and the reference compound was added to the positive control wells. The final concentration of DMSO was 0.2%.
Cell plating: When an 80% confluence of HEK Blue hTLR7&8 cells in the culture flask was observed under a microscope, the culture medium was discarded, 10 mL of detection medium was added, and the cells were separated by pipetting. The cells were counted on a cytometer and diluted to 500,000 cells/mL. The cells were plated at 100 μL/50,000 cells/well in the 96-well plates containing the compounds. The compounds and cells were co-incubated at 37° C. in a 5% CO2 incubator for 24 hours.
Compound activity detection: 20 μL of cell supernatant was taken from each well and added to a plate containing QUANTI-Blue™ reagent at 180 μL/well. The plate was incubated at 37° C. for 1 hour, and the absorbance at 650 nm (OD650) was measured on the multifunctional microplate reader Flexstation III.
Compound activity data analysis: The OD650 values were analyzed by GraphPad Prism software and fitted to give dose-response curves of the compounds. The EC50 values of compounds were calculated.
For orientation: A reporter such as luciferase makes a cellular process visible.

What is called EC50 is the concentration needed to bring the measured effect to its halfway point. For `CCCN(OCc1ccc(N)cc1)C(=O)C1=Cc2ccc(C(=O)Nc3cccc(CN)c3)cc2N=C(N)C1` [Compound 86], the EC50 is more than 1 µM.

As to `CCCN(OCc1ccc(N)cc1)C(=O)C1=Cc2ccc(C(=O)Nc3ncco3)cc2N=C(N)C1` [Compound 87], the EC50 was more than 1 µM.

`CCCN(OCc1ccc(N)cc1)C(=O)C1=Cc2ccc(C(=O)Nc3ccn(C)n3)cc2N=C(N)C1` [Compound 88]: the concentration giving a half-maximal response (EC50) is more than 1 µM.

For `CCCN(OCc1ccc(N)cc1)C(=O)C1=Cc2ccc(C(=O)Nc3ccc4cn[nH]c4c3)cc2N=C(N)C1` [Compound 89], the half-maximal effective concentration (EC50) was more than 1 µM.

For `CCCN(OCc1ccc(N)cc1)C(=O)C1=Cc2ccc(C(=O)Nc3ccc4c(c3)CNC4)cc2N=C(N)C1` [Compound 90], the 50% effective concentration (EC50) was more than 1 µM.

Regarding `CCCN(OCc1ccc(N)cc1)C(=O)C1=Cc2ccc(C(=O)N3CCN(C)CC3)cc2N=C(N)C1` [Compound 93], the EC50 is more than 1 µM.

As to `CCCN(OCc1ccc(N)cc1)C(=O)C1=Cc2ccc(C(=O)N3CC(Oc4ccccc4)C3)cc2N=C(N)C1` [Compound 94], the half-maximal effective concentration (EC50) was 0.1 to 1 µM.

Regarding `CCCN(OCc1ccc(N)cc1)C(=O)C1=Cc2ccc(C(=O)N3CC4(COC4)C3)cc2N=C(N)C1` [Compound 95], the half-maximal effective concentration (EC50) was more than 1 µM.

Regarding `CCCN(OCc1ccc(N)cc1)C(=O)C1=Cc2ccc(C(=O)N3CCN(c4ccccc4)CC3)cc2N=C(N)C1` [Compound 97], the EC50 is more than 1 µM.
